The values below come from patent US10377791B2, “Therapeutically active estratrienthiazole derivatives as inhibitors of 17 B-hydroxysteroid dehydrogenase, type 1” (FORENDO PHARMA LTD, priority 2013, dated 2019).

Experiment [1] deals with T1, recombinant human 17β-HSD2 (Homo sapiens, UniProt P37059).
T1 construct: made in house; host or cells: Sd9 (Sf9) insect cells, baculovirus (Bac to Bac Expression System)
T1 sequence (P37059 1-387): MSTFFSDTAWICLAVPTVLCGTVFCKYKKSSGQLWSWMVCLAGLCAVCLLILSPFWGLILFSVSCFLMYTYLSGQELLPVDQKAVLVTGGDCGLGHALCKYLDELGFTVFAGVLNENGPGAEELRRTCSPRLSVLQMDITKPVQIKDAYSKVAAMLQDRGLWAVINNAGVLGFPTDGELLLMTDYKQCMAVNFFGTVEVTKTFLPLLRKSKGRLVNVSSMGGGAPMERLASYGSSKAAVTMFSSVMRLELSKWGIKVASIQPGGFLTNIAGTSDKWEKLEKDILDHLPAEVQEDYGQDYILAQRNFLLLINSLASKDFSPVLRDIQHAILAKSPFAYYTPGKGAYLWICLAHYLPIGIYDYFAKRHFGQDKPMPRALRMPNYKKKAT
Put plainly: Inhibition of recombinant human 17β-HSD2. Format: biochemical. Particulars: read-out: 17β-HSD2 Inhibition % at 1 μM. The procedure:
Similarly to 17β-HSD1 the Recombinant baculovirus was generated by the “Bac to Bac Expression System” (Invitrogen). Recombinant bacmid was transfected to Sd9 insect cells using “Cellfectin Reagent” (Invitrogen). 60 h later cells were harvested and supernatant were fractionated by the following protocol: • cells were dissolved into 40 ml of A-buffer (40 mM TRIS, pH8.0, 20% glycerol, 20 μM NAD, 0.4 mM PMSF, 150 mM NaCl, 0.5% dodecyl-β-maltoside+protease inhibitor cocktail) • cells were sonicated • lysate was incubated on ice for 15 min • lysate was centrifuged 5000 rpm 15 min, +4° C. • centrifugation of the supernatant 180 000 g 30 min, +4° C. • pellet was dissolved into 8 ml of A-buffer • not resuspended material was removed by centrifugation 5000 rpm 15 min, +4° C. • the clear supernatant was divided into 100 μl aliquots and were stored frozen until determination of enzymatic activity.
The amount of 17β-HSD2 was analysed by immunoblotting and total protein concentration of each extract batch was determined.
Recombinant protein (4 μg/ml) was incubated in 20 mM KH2PO4 pH 8.5 with 50 nM estradiol (including 800 000 cpm/ml of ^3H-estradiol) and 1 mM NADH for 30 min at RT, in the presence of the potential inhibitor at concentrations 1 μM or 0.1 μM. Inhibitor stock solutions were prepared in DMSO. Final concentration of DMSO was adjusted to 1% in all samples. The enzyme reaction was stopped by addition of 10% trichloroacetic acid (final concentration). Samples were centrifuged in a microtiter plate at 4000 rpm for 10 min. Supernatants were applied to reverse phase HPLC on a Waters Symmetry C18 column, equipped with a Waters Sentry Guard column. Isocratic HPLC runs were performed at RT at a flow rate of 1 ml/min in acetonitrile:water 48:52 as running solvent. Radioactivity was monitored in the eluate by a Packard Flow Scintillation Analyzer. Total radioactivity for estrone and estradiol were determined in each sample and percent conversion of estradiol to estrone was calculated according to the following formula:
(§1) [formula] Percent inhibition was calculated flowingly: % inhibition=100−% conversion

In experiment [2] the target is T2, recombinant human 17β-HSD1 (Homo sapiens, UniProt P14061).
T2 construct: made in house; host or cells: Sd9 (Sf9) insect cells, baculovirus (Bac to Bac Expression System)
T2 sequence (P14061 1-328): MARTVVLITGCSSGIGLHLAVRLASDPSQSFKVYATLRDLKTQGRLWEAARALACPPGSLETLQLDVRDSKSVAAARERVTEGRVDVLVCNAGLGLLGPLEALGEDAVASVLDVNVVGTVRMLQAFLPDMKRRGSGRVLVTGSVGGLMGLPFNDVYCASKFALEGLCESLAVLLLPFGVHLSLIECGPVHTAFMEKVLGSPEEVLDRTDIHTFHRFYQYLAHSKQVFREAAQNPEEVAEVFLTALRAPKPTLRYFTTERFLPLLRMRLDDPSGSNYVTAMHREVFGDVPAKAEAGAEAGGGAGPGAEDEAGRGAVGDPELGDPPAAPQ
Put plainly: Inhibition of recombinant human 17β-HSD1. Format: biochemical. Particulars: read-out: 17β-HDS1 Inhibition % at 1 μM. The method, then:
Recombinant baculovirus was generated by the “Bac to Bac Expression System” (Invitrogen). Recombinant bacmid was transfected to Sd9 insect cells using “Cellfectin Reagent” (Invitrogen). 60 h later cells were harvested; the microsomal fraction was isolated as described by Puranen, T. J., Poutanen, M. H., Peltoketo, H. E., Vihko, P. T. and Vihko, R. K. (1994) Site-directed mutagenesis of the putative active site of human 17 β-hydroxysteroid dehydrogenase type 1. Biochem. J. 304: 289-293. Aliquots were stored frozen until determination of enzymatic activity.
Recombinant protein (1 μg/ml) was incubated in 20 mM KH2PO4 pH 7.4 with 30 nM estrone (including 800 000 cpm/ml of ^3H-estrone) and 1 mM NADPH for 30 min at RT, in the presence of the potential inhibitor at concentrations 1 μM or 0.1 μM. Inhibitor stock solutions were prepared in DMSO. Final concentration of DMSO was adjusted to 1% in all samples. The enzyme reaction was stopped by addition of 10% trichloroacetic acid (final concentration). Samples were centrifuged in a microtiter plate at 4000 rpm for 10 min. Supernatants were applied to reverse phase HPLC on a Waters Symmetry C18 column, equipped with a Waters Sentry Guard column. Isocratic HPLC runs were performed at RT at a flow rate of 1 ml/min in acetonitrile:water 48:52 as running solvent. Radioactivity was monitored in the eluate by a Packard Flow Scintillation Analyzer. Total radioactivity for estrone and estradiol were determined in each sample and percent conversion of estrone to estradiol was calculated according to the following formula:
as §1

Where [3] appears, read: inhibitor at 1 μM, 50 nM estradiol, 1 mM NADH, 30 min at RT.
The mark [4] stands for this setting: inhibitor at 1 μM, 30 nM estrone, 1 mM NADPH, 30 min at RT.

Read-outs that look alike come from different tables or passages of the source.

The term inhibition denotes the change of the read-out against control, counted positive when it falls.

For the molecule `Cc1cnc(NC(=O)CC[C@@H]2CC(=O)[C@@]3(C)CCC4c5ccc(OC(=O)CN(C)C)cc5CCC4C23)s1` (stereo partly drawn) [Compound 26, Dimethylamino-acetic acid (13S,15R)-13-methyl-15-[2-(5-methylthiazol-2-ylcarbamoyl)-ethyl]-17-oxo-7,8,9,11,12,13,14,15,16,17-decahydro-6H-cyclopenta[a]phenanthren-3-yl ester], the inhibition at 1 µM turned out to be 6% in experiment [1] (setting [3]) and 96% in experiment [2] (setting [4]).
The corresponding values for `Cc1ccc(S(=O)(=O)Oc2ccc3c(c2)CCC2C3CC[C@]3(C)C(=O)C[C@@H](CCC(=O)Nc4ncc(C)s4)C23)cc1` (stereo partly drawn) [Compound 27, Toluene-4-sulphonic acid (13S,15R)-13-methyl-15-[2-(5-methylthiazol-2-ylcarbamoyl)-ethyl]-17-oxo-7,8,9,11,12,13,14,15,16,17-decahydro-6H-cyclopenta[a]phenanthren-3-yl ester] are 5% and 81%.
The corresponding values for `Cc1cnc(NC(=O)CC[C@@H]2CC(=O)[C@@]3(C)CCC4c5cc(C(C)(C)C)c(O)cc5CCC4C23)s1` (stereo partly drawn) [Compound 31, 3-((13S,15R)-2-(tert-butyl)-3-hydroxy-13-methyl-17-oxo-7,8,9,11,12,13,14,15,16,17-decahydro-6H-cyclopenta[a]phenanthren-15-yl)-N-(5-methylthiazol-2-yl)propanamide] are 12% and 87%.
On to `Cc1cnc(NC(=O)CC[C@@H]2CC(=O)[C@@]3(C)CCC4c5cc(C(C)C)c(O)cc5CCC4C23)s1` (stereo partly drawn) [Compound 32, 3-((13S,15R)-3-hydroxy-2-isopropyl-13-methyl-17-oxo-7,8,9,11,12,13,14,15,16,17-decahydro-6H-cyclopenta[a]phenanthren-15-yl)-N-(5-methylthiazol-2-yl)propanamide], for which the inhibition at 1 µM stood at 1% in experiment [1] (setting [3]) and 84% in experiment [2] (setting [4]).
The corresponding values for `COc1cc2c(cc1C(C)=O)C1CC[C@]3(C)C(=O)C[C@@H](CCC(=O)Nc4ncc(C)s4)C3C1CC2` (stereo partly drawn) [Compound 33, 3-((13S,15R)-2-acetyl-3-methoxy-13-methyl-17-oxo-7,8,9,11,12,13,14,15,16,17-decahydro-6H-cyclopenta[a]phenanthren-15-yl)-N-(5-methylthiazol-2-yl)propanamide] are 3% and 71%.
As to `Cc1cnc(NC(=O)CC[C@@H]2CC(=O)[C@@]3(C)CCC4c5cc([N+](=O)[O-])c(O)cc5CCC4C23)s1` (stereo partly drawn) [Compound 34, 3-((13S,15R)-3-hydroxy-13-methyl-2-nitro-17-oxo-7,8,9,11,12,13,14,15,16,17-decahydro-6H-cyclopenta[a]phenanthren-15-yl)-N-(5-methylthiazol-2-yl)propanamide], the inhibition at 1 µM in experiment [1] (setting [3]) was found to be 10%; in experiment [2] (setting [4]), 91%.
For the molecule `Cc1cnc(NC(=O)CC[C@@H]2CC(=O)[C@@]3(C)CCC4c5cc([N+](=O)[O-])c(O)c([N+](=O)[O-])c5CCC4C23)s1` (stereo partly drawn) [Compound 36, 3-((13S,15R)-3-hydroxy-13-methyl-2,4-dinitro-17-oxo-7,8,9,11,12,13,14,15,16,17-decahydro-6H-cyclopenta[a]phenanthren-15-yl)-N-(5-methylthiazol-2-yl)propanamide], the inhibition at 1 µM in experiment [1] worked out at 33%; in experiment [2] it was 87%.
As to `Cc1cnc(NC(=O)CC[C@@H]2CC(=O)[C@@]3(C)CCC4c5cc(N)c(O)cc5CCC4C23)s1` (stereo partly drawn) [Compound 37, 3-((13S,15R)-2-amino-3-hydroxy-13-methyl-17-oxo-7,8,9,11,12,13,14,15,16,17-decahydro-6H-cyclopenta[a]phenanthren-15-yl)-N-(5-methylthiazol-2-yl)propanamide], the inhibition at 1 µM came to 4% in experiment [1] (setting [3]) and 88% in experiment [2] (setting [4]).
For `Cc1cnc(NC(=O)CC[C@@H]2CC(=O)[C@@]3(C)CCC4c5ccc(O)c(N)c5CCC4C23)s1` (stereo partly drawn) [Compound 38, 3-((13S,15R)-4-amino-3-hydroxy-13-methyl-17-oxo-7,8,9,11,12,13,14,15,16,17-decahydro-6H-cyclopenta[a]phenanthren-15-yl)-N-(5-methylthiazol-2-yl)propanamide] the same measures were 9% and 87%.
With `Cc1cnc(NC(=O)CC[C@@H]2CC(=O)[C@@]3(C)CCC4c5ccc(OS(C)(=O)=O)c([N+](=O)[O-])c5CCC4C23)s1` (stereo partly drawn) [Compound 39, (13S,15R)-13-methyl-15-(3-((5-methylthiazol-2-yl)amino)-3-oxopropyl)-4-nitro-17-oxo-7,8,9,11,12,13,14,15,16,17-decahydro-6H-cyclopenta[a]phenanthren-3-yl methanesulfonate], the inhibition at 1 µM amounted to 1% in experiment [1] (setting [3]) and 96% in experiment [2] (setting [4]).
For `Cc1cnc(NC(=O)CC[C@@H]2CC(=O)[C@@]3(C)CCC4c5ccc(OS(C)(=O)=O)c(N)c5CCC4C23)s1` (stereo partly drawn) [Compound 40, (13S,15R)-4-amino-13-methyl-15-(3-((5-methylthiazol-2-yl)amino)-3-oxopropyl)-17-oxo-7,8,9,11,12,13,14,15,16,17-decahydro-6H-cyclopenta[a]phenanthren-3-yl methanesulfonate] the same measures were 1% and 75%.
The corresponding values for `Cc1cnc(NC(=O)CC[C@@H]2CC(=O)[C@@]3(C)CCC4c5cc(CN6CCOCC6)c(O)cc5CCC4C23)s1` (stereo partly drawn) [Compound 42, 3-((13S,15R)-3-hydroxy-13-methyl-2-(morpholinomethyl)-17-oxo-7,8,9,11,12,13,14,15,16,17-decahydro-6H-cyclopenta[a]phenanthren-15-yl)-N-(5-methylthiazol-2-yl)propanamide] are 0% and 90%.
For `Cc1cnc(NC(=O)CC[C@@H]2CC(=O)[C@@]3(C)CCC4c5cc(CN6CCOCC6)c(O)c([N+](=O)[O-])c5CCC4C23)s1` (stereo partly drawn) [Compound 43, 3-((13S,15R)-3-hydroxy-13-methyl-2-(morpholinomethyl)-4-nitro-17-oxo-7,8,9,11,12,13,14,15,16,17-decahydro-6H-cyclopenta[a]phenanthren-15-yl)-N-(5-methylthiazol-2-yl)propanamide] the same measures were 0% and 94%.
